IC50 and Ratio IC50 data for 30 compounds are collected here from ChEMBL document CHEMBL3286296, “Design and synthesis of phenylisoxazole derivatives as novel human acrosin inhibitors” (Bioorg Med Chem Lett, 2014).

One may read the IC50 as the point on the concentration scale where inhibition reaches its midpoint.

Experiment [1] addresses T1, Acrosin (Homo sapiens, UniProt P10323). As to the kind of experiment: Inhibition of human acrosin using N-alpha-benzoyl-L-arginine p-nitroanilide as substrate after 3 hrs by spectrophotometry.
The target of experiment [2] is T1, Acrosin. As to the kind of experiment: Ratio of ISO-1 IC50 to compound IC50 for human acrosin using N-alpha-benzoyl-L-arginine p-nitroanilide as substrate after 3 hrs by spectrophotometry.
Experiment [3] can be described thus: Inhibition of pig trypsin. On the set-up: species or system Sus scrofa.

T1 sequence (P10323 20-42 limits assumed): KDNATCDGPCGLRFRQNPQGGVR
T1 sequence (P10323 43-343 limits assumed): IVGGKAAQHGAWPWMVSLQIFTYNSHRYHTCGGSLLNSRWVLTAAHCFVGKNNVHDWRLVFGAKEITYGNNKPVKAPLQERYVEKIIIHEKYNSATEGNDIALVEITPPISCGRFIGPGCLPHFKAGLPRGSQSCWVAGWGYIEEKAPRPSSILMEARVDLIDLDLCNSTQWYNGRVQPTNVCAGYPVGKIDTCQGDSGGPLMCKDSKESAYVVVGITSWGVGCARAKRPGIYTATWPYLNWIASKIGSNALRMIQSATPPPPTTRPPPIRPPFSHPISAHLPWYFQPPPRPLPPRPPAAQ

At Acrosin [1], `CCOC(=O)c1cc(-c2ccc(NC(=O)c3ccc(Cl)cc3)cc2)on1` registered an IC50 of 380 µM. Same read-out and setting: the figure for `N=C(N)Nc1ccc(-c2cc(C(=O)Nc3cccc4ccccc34)no2)cc1` is 29.9 µM.

As to `CCOC(=O)c1cc(-c2ccc(NC(=O)c3ccccc3Cl)cc2)on1`, the Ratio IC50 at Acrosin [2] was determined as 6. Further, at Acrosin [1], the half-maximal inhibitory concentration (IC50) worked out at 60 µM. Compound `COc1ccc(OC)c(NC(=O)c2cc(-c3ccc(NC(=N)N)cc3)on2)c1` came in with an IC50 on Acrosin [1] of 2.3 µM. On the same count and under the same terms, in the case of `N=C(N)Nc1ccc(-c2cc(C(=O)Nc3ccc(F)cc3)no2)cc1` it was 20.5 µM; in that of `Cc1ccccc1NC(=O)c1cc(-c2ccc(NC(=N)N)cc2)on1`, 14.4 µM.

At Acrosin [1], `CC(C)NC(=O)c1cc(-c2ccc(NC(=N)N)cc2)on1` returned an IC50 of over 100 µM. With `CCOC(=O)c1cc(-c2ccc(NC(=O)c3ccccc3)cc2)on1`, at Acrosin [1], half-maximal inhibition (IC50) required 460 µM. Same read-out and setting: the figure for `N=C(N)Nc1ccc(-c2cc(C(=O)Nc3ccccc3)no2)cc1` is 24.6 µM; for `CCOC(=O)c1cc(-c2ccc(NC(=O)c3ccc(F)cc3)cc2)on1` it is 140 µM.

As for `N=C(N)Nc1ccc(-c2cc(C(=O)Nc3cccc(Br)c3)no2)cc1`, the IC50 on Acrosin [1] is 14.4 µM. The same measure, in the same setting: in the case of `COc1ccccc1NC(=O)c1cc(-c2ccc(NC(=N)N)cc2)on1` it was 8.4 µM. On the same count and under the same terms, the figure for `CCOC(=O)c1ccc(NC(=O)c2cc(-c3ccc(NC(=N)N)cc3)on2)cc1` is 9.3 µM; for `N#Cc1ccc(NC(=O)c2cc(-c3ccc(NC(=N)N)cc3)on2)cc1` it is 23.9 µM; for `Cc1cccc(NC(=O)c2cc(-c3ccc(NC(=N)N)cc3)on2)c1` it is 9.4 µM. The same measure, in the same setting: in the case of `Cc1ccnc(NC(=O)c2cc(-c3ccc(NC(=N)N)cc3)on2)c1` it was 21.4 µM; in that of `Cc1cccc(NC(=O)c2cc(-c3ccc(NC(=N)N)cc3)on2)c1C`, 11.5 µM. On Acrosin [1], `CCOc1ccc(NC(=O)c2cc(-c3ccc(NC(=N)N)cc3)on2)cc1` displayed an IC50 of 6.4 µM. The same measure, in the same setting: the figure for `CC(CO)NC(=O)c1cc(-c2ccc(NC(=N)N)cc2)on1` (configuration not stated) is over 100 µM. Still for that read-out and setting: in the case of `COc1cccc(NC(=O)c2cc(-c3ccc(NC(=N)N)cc3)on2)c1` it was 6.6 µM; in that of `N=C(N)Nc1ccc(-c2cc(C(=O)Nc3ccc(Cl)cc3)no2)cc1`, 26.8 µM; in that of `Cc1cc(C)cc(NC(=O)c2cc(-c3ccc(NC(=N)N)cc3)on2)c1`, 12.1 µM. Consider `Cc1ccc(NC(=O)c2cc(-c3ccc(NC(=N)N)cc3)on2)cc1`, for which half-maximal inhibition on Acrosin [1] (IC50) was put at 10.1 µM. As to `COc1ccc(NC(=O)c2cc(-c3ccc(NC(=N)N)cc3)on2)c(OC)c1`, the IC50 was determined as 1.4 µM against Acrosin [1] and 4.2 mM in experiment [3]. On to `CCOC(=O)c1cc(-c2ccc(NC(=O)c3ccc(Cl)c(Cl)c3)cc2)on1`, for which the IC50 against Acrosin [1] worked out at 240 µM. Same read-out and setting: in the case of `N=C(N)Nc1ccc(-c2cc(C(=O)Nc3ccccc3Br)no2)cc1` it was 27.9 µM. The same measure, in the same setting: in the case of `Cc1cccc(C)c1NC(=O)c1cc(-c2ccc(NC(=N)N)cc2)on1` it was 5.7 µM. Same read-out and setting: the figure for `N=C(N)Nc1ccc(-c2cc(C(=O)Nc3ccc(C(F)(F)F)cc3)no2)cc1` is 20.3 µM; for `N=C(N)Nc1ccc(-c2cc(C(=O)Nc3cccc(Cl)c3)no2)cc1` it is 25.4 µM; for `CC(C)(C)c1ccc(NC(=O)c2cc(-c3ccc(NC(=N)N)cc3)on2)cc1` it is 7.8 µM.
